{"source": "ChEMBL document CHEMBL2086285", "about": "“Targeting the liver stage of malaria parasites: a yet unmet goal” (J Med Chem, 2012)", "key": {"[1]": {"test_system": "Plasmodium yoelii", "experiment": "Antimalarial activity against liver stages of Plasmodium yoelii 17XNL expressing GFP infected in human HepG2 cells transfected with CD81 assessed as growth inhibition of hepatic parasite after 40 hrs by flow cytometry", "format": "functional, organism-based"}, "[2]": {"test_system": "Plasmodium berghei", "experiment": "Antimalarial activity against Plasmodium berghei infected in […] 1-6 cells assessed as inhibition of host cell sporozoite invasion at 10 uM preincubated for 10 mins measured after 1 hr", "format": "functional", "conditions": "Hepa1-6"}, "[3]": {"test_system": "Plasmodium berghei", "experiment": "Antimalarial activity against liver stages of Plasmodium berghei infected in human HepG2 cells assessed as growth inhibition of hepatic parasite before invasion of hepatocytes incubated for 48 hrs followed by compound wash out measured after 3 days by RT-PCR analysis", "format": "functional, organism-based"}, "[4]": {"test_system": "Plasmodium berghei", "experiment": "Antimalarial activity against liver stages of Plasmodium berghei assessed as human HepG2 cells assessed as inhibition of hepatic parasite growth after invasion of hepatocytes incubated for 48 hrs followed by compound wash out measured after 2 days by RT-PCR analysis", "format": "functional, organism-based"}, "[5]": {"test_system": "Plasmodium cynomolgi", "experiment": "Antimalarial activity against liver stages of Plasmodium cynomolgi infected in human HepG2 cells assessed as growth inhibition of hepatic parasite after 3 days", "format": "functional, organism-based", "conditions": "72 h"}, "[6]": {"test_system": "Plasmodium yoelii", "experiment": "Antimalarial activity against liver stages of Plasmodium yoelii 17XNL infected in Swiss Webster mouse assessed as reduction in liver parasite load at 25 mg/kg, po co-administered with 12.5 mg/kg ritonavir incubated for 6 hrs prior to sporozoite inoculation measured after 18 hrs", "format": "functional", "parameters": "scale not given: the % may be the effect or the level left"}, "[7]": {"test_system": "Plasmodium yoelii", "experiment": "Antimalarial activity against liver stages of Plasmodium yoelii 17XNL infected in Swiss Webster mouse assessed as reduction in liver parasite load at 100 mg/kg, po co-administered with 50 mg/kg ritonavir incubated for 6 hrs prior to sporozoite inoculation measured after 18 hrs", "format": "functional", "parameters": "scale not given: the % may be the effect or the level left"}, "[8]": {"test_system": "Plasmodium berghei", "experiment": "Antimalarial activity against liver stages of Plasmodium berghei […] infected in human Hepa1-6 cells assessed as reduction in liver parasite load at 10 uM/L incubated for 1 hr prior to sporozoite inoculation measured after 46 to 48 hrs by fluorescence microscope", "format": "functional", "parameters": "scale not given: the % may be the effect or the level left"}, "[9]": {"test_system": "Plasmodium falciparum", "experiment": "Antimalarial activity against liver stages of Plasmodium falciparum NF54 in mouse after 72 to 120 hrs by immunofluorescence assay", "format": "functional, organism-based"}, "[10]": {"test_system": "Plasmodium yoelii yoelii", "experiment": "Antimalarial activity against liver stages of Plasmodium yoelii yoelii 265 BY infected in mouse after 48 hrs by immunofluorescence assay", "format": "functional, organism-based"}, "[11]": {"test_system": "Plasmodium yoelii", "experiment": "Antimalarial activity against liver stages of Plasmodium yoelii after 96 hrs"}, "[12]": {"test_system": "Plasmodium yoelii", "experiment": "Antimalarial activity against liver stages of Plasmodium yoelii after 96 hrs", "format": "functional, organism-based"}, "[13]": {"test_system": "Plasmodium berghei", "experiment": "Antimalarial activity against Plasmodium berghei ANKA infected in C57BL/6 mouse assessed as increase in resistance of mouse to cerebral malaria at 10 mg/kg, ip", "format": "functional", "conditions": "route intraperitoneal"}, "[14]": {"test_system": "Plasmodium berghei", "experiment": "Antimalarial activity against Plasmodium berghei ANKA infected in human Huh7 cells after 24 hrs by qRT-PCR", "format": "functional, organism-based", "conditions": "Huh-7, 24 h"}, "[15]": {"test_system": "Plasmodium yoelii", "experiment": "Antimalarial activity against Plasmodium yoelii infected in mouse assessed as protection against parasitic infection at 160 mg/kg, po", "format": "functional"}, "[16]": {"test_system": "Plasmodium yoelii", "experiment": "Antimalarial activity against Plasmodium yoelii infected in po dosed mouse assessed as minimum dose required to protection against 100% parasitic infection", "format": "functional", "conditions": "read-out: MED"}, "[17]": {"test_system": "Plasmodium berghei", "experiment": "Antimalarial activity against liver stages of Plasmodium berghei", "format": "functional, organism-based"}, "[18]": {"test_system": "Plasmodium berghei", "experiment": "Antimalarial activity against Plasmodium berghei ANKA expressing GFP infected in C57BL/6 mouse assessed as reduction of liver infection at 200 mg/kg, po incubated for 6 hrs prior to sporozoite inoculation measured after 40 hrs by qRT PCR", "parameters": "scale not given: the % may be the effect or the level left"}, "[19]": {"test_system": "Plasmodium falciparum", "experiment": "Antimalarial activity against liver stages of Plasmodium falciparum NF54 infected in human hepatocytes assessed as growth inhibition of hepatic parasite after 5 days by fluorescence microscopy", "format": "functional, organism-based", "conditions": "NF54, Hepatocyte, 120 h"}, "[20]": {"test_system": "Plasmodium yoelii yoelii", "experiment": "Antimalarial activity against liver stages of Plasmodium yoelii yoelii in mouse hepatocytes assessed as growth inhibition", "format": "functional, organism-based", "conditions": "Hepatocyte"}, "[21]": {"test_system": "Plasmodium yoelii", "experiment": "Antimalarial activity against Plasmodium yoelii infected in mouse assessed as protection against parasitic infection at 5 mg/kg, po", "format": "functional"}, "[22]": {"test_system": "Plasmodium yoelii", "experiment": "Antimalarial activity against liver stages of Plasmodium yoelii assessed as inhibition of cytochrome bc1 complex", "format": "functional, organism-based"}, "[23]": {"test_system": "Plasmodium yoelii", "experiment": "Antimalarial activity against liver stages of Plasmodium yoelii infected in mouse assessed as protection against parasitic infection at 50 mg/kg, po after 7 days", "format": "functional"}, "[24]": {"test_system": "Plasmodium berghei", "experiment": "Antimalarial activity against liver stages of Plasmodium berghei in human HepG2 cells assessed as inhibition of exoerythrocytic development at 1.85 nM administered 3 hrs after sporozite invasion measured after 48 hrs", "format": "functional"}, "[25]": {"test_system": "Plasmodium berghei", "experiment": "Antimalarial activity against liver stages of Plasmodium berghei assessed as inhibition of cytochrome bc1 complex", "format": "functional, organism-based"}, "[26]": {"test_system": "Plasmodium falciparum", "experiment": "Antimalarial activity against liver stages of Plasmodium falciparum NF54 infected in human HepG2-A16 cells expressing CD81 assessed as growth inhibition of hepatic parasite after 5 days by fluorescence microscopy", "format": "functional, organism-based", "conditions": "NF54, HepG2A16, Liver, 120 h"}}, "data": [{"smiles": "C=CCS[S+]([O-])CC=C", "note": "(stereo unspecified) [ALLICIN]", "values": [{"measurement": "IC50", "setting": "[1]", "result": 40, "unit": "µM"}, {"measurement": "inhibition at 10 µM", "setting": "[2]", "result": 37, "unit": "%"}, {"measurement": "IC50", "setting": "[3]", "result": 6.8, "unit": "µM"}, {"measurement": "IC50", "setting": "[4]", "result": 39.4, "unit": "µM"}]}, {"smiles": "CCc1nc(N)nc(N)c1-c1ccc(Cl)cc1", "note": "[PYRIMETHAMINE]", "values": [{"measurement": "IC50", "setting": "[5]", "result": 1.03, "unit": "µM"}]}, {"smiles": "Cc1cccc(C)c1OCC(=O)N[C@@H](Cc1ccccc1)[C@@H](O)C[C@H](Cc1ccccc1)NC(=O)[C@H](C(C)C)N1CCCNC1=O", "note": "[LOPINAVIR]", "values": [{"measurement": "Activity", "setting": "[6]", "result": 45, "unit": "%"}, {"measurement": "Activity", "setting": "[7]", "result": 93, "unit": "%"}, {"measurement": "Activity", "setting": "[8]", "result": 38, "unit": "%"}]}, {"smiles": "Cc1c(F)c(N2CCNC(C)C2)cc2c1c(=O)c(C(=O)O)cn2C1CC1", "note": "(stereo unspecified) [GREPAFLOXACIN]", "values": [{"measurement": "IC50", "setting": "[9]", "result": 10, "unit": "µM"}, {"measurement": "IC50", "setting": "[10]", "result": 10, "unit": "µM"}]}, {"smiles": "C[C@@H](CN1CC(=O)NC(=O)C1)N1CC(=O)NC(=O)C1", "note": "[DEXRAZOXANE]", "values": [{"measurement": "INH", "setting": "[11]", "result": 50, "unit": "µM"}, {"measurement": "INH", "setting": "[12]", "result": 50, "unit": "µM"}]}, {"smiles": "C[C@H](NC(=O)[C@@H](O)c1cc(F)cc(F)c1)C(=O)N[C@@H]1C(=O)N(C)c2ccccc2-c2ccccc21", "values": [{"measurement": "Activity", "setting": "[13]", "result": 55, "unit": "%"}, {"measurement": "IC50", "setting": "[14]", "result": 80, "unit": "µM"}]}, {"smiles": "CC(C)COC(=O)/N=C(\\NC1=NC(=O)C(=O)N1C(C)C)Nc1ccc(Cl)c(Cl)c1", "values": [{"measurement": "Activity", "setting": "[15]", "result": 100, "unit": "%"}, {"measurement": "minimal effective dose", "setting": "[16]", "result": 40, "unit": "mg/kg"}]}, {"smiles": "O=c1c(-c2ccc(O)cc2)coc2cc(O)cc(O)c12", "note": "[GENISTEIN]", "values": [{"measurement": "IC50", "setting": "[17]", "result": 20, "unit": "µM"}, {"measurement": "Activity", "setting": "[18]", "result": 64, "unit": "%"}]}, {"smiles": "COC1=C2[C@H]3NCC[C@]2(C[C@H](O)[C@@H]1O)c1c(ccc(OC)c1O)[C@H]3O", "note": "[TAZOPSINE]", "values": [{"measurement": "IC50", "setting": "[19]", "result": 4.2, "unit": "µM"}]}, {"smiles": "NCCCCN(CCCN)C(=O)CCCCCCCCCCCOCc1ccc2c(c1)[C@@H]1C[C@]3(CCCCO3)NC3=N[C@]4(CCCCO4)C[C@H]2N31", "values": [{"measurement": "IC50", "setting": "[20]", "result": 9.2, "unit": "µM"}]}, {"smiles": "CC(C)COC(=O)N/C(=N/C(C)C)NC1=NC(=O)C(=O)N1c1ccc(Cl)c(Cl)c1", "values": [{"measurement": "Activity", "setting": "[21]", "result": 100, "unit": "%"}]}, {"smiles": "CCCCCCCCCCOc1cc2c(O)c(C(=O)OCC)cnc2cc1OCC", "note": "[DECOQUINATE]", "values": [{"measurement": "IC50", "setting": "[22]", "result": 0.000177, "unit": "µM"}, {"measurement": "Activity", "setting": "[23]", "result": 80, "unit": "%"}]}, {"smiles": "O=C1C(O)=C([C@H]2CC[C@H](c3ccc(Cl)cc3)CC2)C(=O)c2ccccc21", "note": "[ATOVAQUONE]", "values": [{"measurement": "inhibition in vivo at 0.00185 µM", "setting": "[24]", "result": 50, "unit": "%"}, {"measurement": "IC50", "setting": "[25]", "result": 0.0197, "unit": "µM"}, {"measurement": "IC50", "setting": "[26]", "result": 0.00395, "unit": "µM"}]}]}
